From patent US20060252807A1, “Novel ortho-terphenyl inhibitors of p38 kinase and methods of treating inflammatory disorders” (Kalypsys, Inc., priority 2005, published 2006)

Columns and labels:
TNF-α production = TNF-α production by LPS-stimulated rats (ELISA); assay type: in vivo, Male Lewis rats; details: rat, −1 hr before LPS; for inhibition at 30 mg/kg / inhibition at 10 mg/kg: read-out: LPS Induced TNF alpha (−1 hr) In Vivo (+) = >15% Inhibition (−) = ≦15% Inhibition; for ED50: oral dosing, read-out: LPS Induced TNF alpha (−1 hr) In Vivo (+) = ED50 ≦ 10 (−) = ED50 > 10
Method: TNF-α Production by LPS-Stimulated Mice
Male Lewis rats (180-200 g) were injected intraperitoneally with lipopolysaccharide (LPS) (50 μg/kg of E. coli strain 0111:B4, Sigma) suspended in sterile saline. Ninety minutes later, mice were sedated by CO2:O2 inhalation and a blood sample was obtained. Serum was separated and analyzed for TNF-α concentrations by commercial ELISA assay per the manufacturer's instructions (R&D Bioscience). Test compounds were administered orally at various times before LPS injection. The compounds were dosed either as suspensions or as solutions in various vehicles or solubilizing agents.
Compounds were dosed 0.5 to 3 hours before LPS stimulation. Rats were anaesthetized with Isofluor and injected i.v. with 0.3 mg/kg of LPS* in a volume of 0.3 ml sterile saline. Ninety minutes after the LPS injection, blood samples were collected into heparin tubes for preparation of plasma samples. Repression of TNFα production is assessed by commercial ELISA and reported below in Table 2.

[1] = molecular target: T1, active p38 alpha enzyme (Upstate Biotechnology) (Homo sapiens, UniProt Q16539); assay: p38α biochemical assay (ATP turnover, luminescent detection, Cambrex PKlight); details: Table 1 Biological Activity
T1 construct: purchased Upstate Biotechnology
T1 sequence (Q16539 whole entry): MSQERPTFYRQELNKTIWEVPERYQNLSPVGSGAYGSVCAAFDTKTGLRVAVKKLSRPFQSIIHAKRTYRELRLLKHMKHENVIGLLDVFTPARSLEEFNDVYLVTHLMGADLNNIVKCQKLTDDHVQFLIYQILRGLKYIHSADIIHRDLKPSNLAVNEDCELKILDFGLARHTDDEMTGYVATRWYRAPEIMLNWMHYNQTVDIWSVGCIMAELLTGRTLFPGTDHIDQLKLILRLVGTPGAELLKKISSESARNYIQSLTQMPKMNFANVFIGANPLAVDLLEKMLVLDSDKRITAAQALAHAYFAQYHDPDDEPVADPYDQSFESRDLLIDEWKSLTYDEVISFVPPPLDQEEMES
In short: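 Luminescent ATP-depletion readout measures total ATP turnover by p38α phosphorylating whole MapkapK2 protein. ATP 1.4 uM final; 30C, 2 h. Compounds delivered from DMSO.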

SMILES	IC50 ([1]; p38α biochemical assay)	IC50 ([1]; p38α kinase)	further results
Cc1onc(-c2ccccc2)c1-c1ccn(C(=O)NC(C)C)n1 [Example 1, 3-(5-Methyl-3-phenyl-isoxazol-4-yl)pyrazole-1-carboxylic acid isopropylamide]	≤ 1 µM		inhibition at 30 mg/kg (TNF-α production): > 15%
Cc1onc(-c2ccc(F)cc2F)c1-c1ccn(C(=O)NC(C)C)n1 [Example 17, 3-|3-(2,4-Difluoro-phenyl)-5-methyl-isoxazol-4-yl|-pyrazole-1-carboxylic acid isopropylamide]	≤ 1 µM		inhibition at 30 mg/kg (TNF-α production): > 15%
Cc1onc(-c2ccc(F)cc2)c1-c1ccn(C(=O)NC(C)C)n1 [Example 18, 3-|3-(4-Fluoro-phenyl)-5-methyl-isoxazol-4-yl|-pyrazole-1-carboxylic acid isopropylamide]	≤ 1 µM		inhibition at 30 mg/kg (TNF-α production): > 15%
CC(C)NC(=O)n1ccc(-c2c(-c3ccc(F)cc3)noc2CN2CCOCC2)n1 [Example 26, 3-|3-(4-Fluoro-phenyl)-5-morpholin-4-ylmethyl-isoxazol-4-yl|-pyrazole-1-carboxylic acid isopropylamide]	≤ 1 µM		inhibition at 10 mg/kg (TNF-α production): > 15%; ED50 (TNF-α production): ≤ 10 mg/kg
Cc1onc(-c2ccc(F)cc2)c1-c1nc(C(=O)NC(C)C)cs1 [Example 27, 2-|3-(4-Fluoro-phenyl)-5-methyl-isoxazol-4-yl|-thiazole-4-carboxylic acid isopropylamide]	≤ 1 µM		inhibition at 10 mg/kg (TNF-α production): > 15%; ED50 (TNF-α production): > 10 mg/kg
CC(C)NC(=O)c1csc(-c2c(-c3ccc(F)cc3)noc2C2CCNCC2)n1 [Example 35, 2-|3-(4-Fluoro-phenyl)-5-piperidin-4-yl-isoxazol-4-yl|-thiazole-4-carboxylic acid isopropylamide]	≤ 1 µM		inhibition at 10 mg/kg (TNF-α production): ≤ 15%
Cc1nc(-c2ccc(F)cc2)c(-c2nc(C(=O)NC(C)C)cs2)o1 [Example 38]	≤ 1 µM		inhibition at 10 mg/kg (TNF-α production): > 15%; ED50 (TNF-α production): ≤ 10 mg/kg
CC(C)NC(=O)c1csc(-c2oc(CN3CCOCC3)nc2-c2ccc(F)cc2)n1 [Example 41, 2-|4-(4-Fluoro-phenyl)-2-morpholin-4-ylmethyl-oxazol-5-yl|-thiazole-4-carboxylic acid isopropylamide]	≤ 1 µM		inhibition at 10 mg/kg (TNF-α production): > 15%
CC(C)NC(=O)c1csc(-c2oc(CN3CCNCC3)nc2-c2ccc(F)cc2)n1 [Example 44, 2-|4-(4-Fluoro-phenyl)-2-piperazin-1-ylmethyl-oxazol-5-yl|-thiazole-4-carboxylic acid isopropylamide]	≤ 1 µM		inhibition at 10 mg/kg (TNF-α production): ≤ 15%
Cc1nc(-c2ccc(F)cc2)c(-c2nc(C(=O)NC(C)C)cs2)s1 [Example 46, 4′-(4-Fluoro-phenyl)-2′-methyl-|2,5′|bithiazolyl-4-carboxylic acid isopropylamide]	≤ 1 µM		inhibition at 30 mg/kg (TNF-α production): > 15%
CC(C)NC(=O)c1csc(-c2c(-c3ccc(F)cc3)n[nH]c2C2CCN(C(=O)CO)CC2)n1 [Example 62, 2-{3-(4-Fluoro-phenyl)-5-|1-(2-hydroxy-acetyl)-piperidin-4-yl|-1H-pyrazol-4-yl}thiazole-4-carboxylic acid isopropylamide]	≤ 1 µM		inhibition at 10 mg/kg (TNF-α production): > 15%
CC(=O)C(=O)N1CCC(c2[nH]nc(-c3ccc(F)cc3)c2-c2nc(C(=O)NC(C)C)cs2)CC1 [Example 2176, 2-{3-(4-Fluoro-phenyl)-5-|1-(2-oxo-propionyl)-piperidin-4-yl|-1H-pyrazol-4-yl}-thiazole-4-carboxylic acid isopropylamide]		≤ 1 µM	
CC(=O)NCC(=O)N1CCC(c2[nH]nc(-c3ccc(F)cc3)c2-c2nc(C(=O)NC(C)C)cs2)CC1 [Example 2177, 2-|5-|1-(2-Acetylamino-acetyl)-piperidin-4-yl|-3-(4-fluoro-phenyl)-1H-pyrazol-4-yl|-thiazole-4-carboxylic acid isopropylamide]		≤ 1 µM	
CC(C)NC(=O)c1csc(-c2c(-c3ccc(F)cc3)n[nH]c2C2CCN(C(=O)c3ccncc3)CC2)n1 [Example 2178, 2-{3-(4-Fluoro-phenyl)-5-|1-(pyridine-4-carbonyl)-piperidin-4-yl|-1H-pyrazol-4-yl}-thiazole-4-carboxylic acid isopropylamide]		≤ 1 µM	
CC(C)NC(=O)c1csc(-c2c(-c3ccc(F)cc3)n[nH]c2C2CCN(C(=O)c3cccnc3)CC2)n1 [Example 2179, 2-{3-(4-Fluoro-phenyl)-5-|1-(pyridine-3-carbonyl)-piperidin-4-yl|-1H-pyrazol-4-yl}-thiazole-4-carboxylic acid isopropylamide]		≤ 1 µM	
CC(C)NC(=O)c1csc(-c2[nH][nH]c(=O)c2-c2ccc(F)cc2)n1 [Example 2180, 2-|4-(4-Fluoro-phenyl)-5-oxo-2,5-dihydro-1H-pyrazol-3-yl|-thiazole-4-carboxylic acid isopropylamide]		≤ 1 µM	
CC(C)NC(=O)c1csc(-c2c(-c3ccc(F)cc3)c(=O)[nH]n2C)n1 [Example 2182, 2-|4-(4-Fluoro-phenyl)-2-methyl-5-oxo-2,5-dihydro-1H-pyrazol-3-yl|-thiazole-4-carboxylic acid isopropyl amide]		> 1 µM	
CC(C)NC(=O)c1csc(-c2c(-c3ccc(F)cc3)c(=O)[nH]n2C2CCN(C(=O)OCc3ccccc3)CC2)n1 [Example 2183, 4-|4-(4-Fluoro-phenyl)-5-(4-isopropylcarbamoyl-thiazol-2-yl)-3-oxo-2,3-dihydro-pyrazol-1-yl|-piperidine-1-carboxylic acid benzyl ester]		> 1 µM	
CC(=O)N1CCC(c2onc(-c3ccc(F)cc3)c2-c2nc(C(=O)NC(C)C)cs2)CC1 [Example 2184, 2-|5-(1-Acetyl-piperidin-4-yl)-3-(4-fluoro-phenyl)-isoxazol-4-yl|-thiazole-4-carboxylic acid isopropylamide]		≤ 1 µM	
O=C(NCC(F)(F)F)c1csc(-c2c(-c3ccc(F)cc3)ncn2C2CCNCC2)n1 [Example 2185, 2-|5-(4-Fluoro-phenyl)-3-piperidin-4-yl-3H-imidazol-4-yl|-thiazole-4-carboxylic acid (2,2,2-trifluoro-ethyl)-amide]		≤ 1 µM	
CC(C)NC(=O)c1ccn(-c2c(-c3ccc(F)cc3)noc2C2CCNCC2)n1 [Example 2188, 1-|3-(4-Fluoro-phenyl)-5-piperidin-4-yl-isoxazol-4-yl|-1H-pyrazole-3-carboxylic acid isopropylamide]		> 1 µM	
CC(C)NC(=O)c1csc(-c2c(-c3ccc(F)cc3)ncn2C2CC(C)(C)NC(C)(C)C2)n1 [Example 2189, 2-|5-(4-Fluoro-phenyl)-3-(2,2,6,6-tetramethyl-piperidin-4-yl)-3H-imidazol-4-yl|-thiazole-4-carboxylic acid isopropylamide]		> 1 µM	
O=C(NC1CCCC1)c1csc(-c2c(-c3ccc(F)cc3)ncn2C2CCNCC2)n1 [Example 2190, 2-|5-(4-Fluoro-phenyl)-3-piperidin-4-yl-3H-imidazol-4-yl|-thiazole-4-carboxylic acid cyclopentylamide]		≤ 1 µM	
O=C(NC1CCCCC1)c1csc(-c2c(-c3ccc(F)cc3)ncn2C2CCNCC2)n1 [Example 2191, 2-|5-(4-Fluoro-phenyl)-3-piperidin-4-yl-3H-imidazol-4-yl|-thiazole-4-carboxylic acid cyclohexylamide]		≤ 1 µM	
CCN(C(=O)NCCCN(C)C)C(=O)c1csc(-c2c(-c3ccc(F)cc3)ncn2C2CCNCC2)n1 [Example 2192, 3-(3-Dimethylamino-propyl)-1-ethyl-1-{2-|5-(4-fluoro-phenyl)-3-piperidin-4-yl-3H-imidazol-4-yl|-thiazole-4-carbonyl}-urea]		> 1 µM	
CC(C)NC(=O)c1csc(-c2c(-c3ccc(F)cc3)ncn2C2CCN(CCO)CC2)n1 [Example 2193, 2-{5-(4-Fluoro-phenyl)-3-|1-(2-hydroxy-ethyl)-piperidin-4-yl|-3H-imidazol-4-yl}-thiazole-4-carboxylic acid isopropylamide]		> 1 µM	
CC(=O)N1CCC(n2cnc(-c3ccc(F)cc3)c2-c2nc(C(=O)NC(C)C)cs2)CC1 [Example 2194, 2-|3-(1-Acetyl-piperidin-4-yl)-5-(4-fluoro-phenyl)-3H-imidazol-4-yl|-thiazole-4-carboxylic acid isopropylamide]		≤ 1 µM	
Cc1[nH]nc(-c2ccc(F)cc2)c1-c1nc(C(=O)NC(C)C)ns1 [Example 2195, 5-|3-(4-Fluoro-phenyl)-5-methyl-1H-pyrazol-4-yl|-|1,2,4|thiadiazole-3-carboxylic acid isopropylamide]		> 1 µM	
Cc1[nH]nc(-c2ccc(F)cc2)c1-c1nc(C(=O)NC(C)C)no1 [Example 2196, 5-|3-(4-Fluoro-phenyl)-5-methyl-1H-pyrazol-4-yl|-|1,2,4|oxadiazole-3-carboxylic acid isopropylamide]		> 1 µM	
